From patent US11578055B2, “Triazacyclododecansulfonamide (“TCD”)-based protein secretion inhibitors” (KEZAR LIFE SCIENCES, priority 2018, dated 2023) come the findings set out here.

The test system of data set [1] is PD1 signal sequence plus 10 amino acids fused to Gaussia Luciferase (PD1-ss+10aa/Gaussia Luciferase). The data set can be described thus: Dox Induced PD1-ss-Gluc Assay. It is filed as cell-based. As to conditions: 24 hr, Dox inducible, 293FRT/TO cells; read-out: 24 hr Dox Inducible PD1ssGluc 293FRT/TO: Mean IC50. The gist of the method: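 Stable Flp-In 293 T-REx line expressing the fusion under tetracycline-inducible control, plated the day before assay. Compound dilutions added with doxycycline and incubated at 37 °C, 5% CO2; unspecified stereocentres mean data refer to stereoisomer mixtures.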

Data set [2] can be described thus: In Vitro Microsome Stability Assay (human). It is filed as in vitro ADME. As to conditions: human liver microsomes, 30 min w/ NADPH. In a few lines: (§1)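 Species liver microsomes in potassium phosphate buffer were preincubated at 37 °C for 3–5 min with test compound (added from 0.25 mM DMSO stock), then started with NADPH. Samples at 0 and 30 min were quenched with acetonitrile containing internal standard and analysed by LC-MS/MS; % remaining at 30 min used analyte/IS AUC ratios relative to t=0.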
On the technique in general: Liver microsomes are a subcellular fraction often used to study metabolism.

The subject of data set [3] is full length IL-2 (amino acids 1-153) fused to Gaussia Luciferase. The data set can be described thus: Dox Induced IL2-FL-Gluc Assay. It is filed as cell-based. The conditions noted are these: 24 hr, Dox inducible, 293FRT/TO cells; read-out: 24 hr Dox Inducible IL2FLGluc 293FRT/TO: Mean IC50. The gist of the method:
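Flp-In 293 T-REx stable line expressing full-length IL-2 (aa 1-153) with C-terminal Gaussia luciferase fusion under doxycycline-inducible control. Cells plated the day before; compound dilutions added in DMSO/media containing doxycycline, incubated at 37° C, 5% CO2.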

A short description of data set [4]: In Vitro Microsome Stability Assay (monkey). The class given is in vitro ADME. The conditions noted are these: monkey liver microsomes, 30 min w/ NADPH. In a few lines:
as §1

In data set [5] the test system is multiple myeloma cell line U266B1. The data set can be described thus: U266 Cell Viability Assay. The class given is cell-based, human. The conditions noted are these: Homo sapiens, U-266; 48 hr, U266, Celltiter-Glo. In a few lines:
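U266B1 myeloma cells in RPMI 1640 with 10% FBS were treated with compound dilutions for 48 h at 37° C, 5% CO2. Viability was read as CellTiter-Glo luminescence. Data for structures drawn without stereochemistry refer to stereoisomer mixtures.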

Data set [6] is described as follows: In Vitro Microsome Stability Assay (rat). It is filed as in vitro ADME. The conditions noted are these: rat liver microsomes, 30 min w/ NADPH. The gist of the method: as §1
Data set [7] relates to full length TNFα (amino acids 1-233) fused to Gaussia Luciferase. The experiment in a line: Dox Induced TNFα-FL-Gluc Assay. It is filed as cell-based. The conditions noted are these: 24 hr, Dox inducible, 293FRT/TO cells; read-out: 24 hr Dox Inducible TNFaFLGluc 293FRT/TO: Mean IC50. In a few lines: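 Stable Flp-In 293 T-REx line expressing doxycycline-inducible full-length TNFα fused to Gaussia luciferase; cells plated the day before, then treated with compound dilutions in doxycycline-containing medium at 37° C, 5% CO2. Unspecified stereocentres mean stereoisomer mixtures were tested.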

A short description of data set [8]: In Vitro Microsome Stability Assay (mouse). The class given is in vitro ADME. The conditions noted are these: mouse liver microsomes, 30 min w/ NADPH. In a few lines: as §1
For data set [9], the system named is multiple myeloma cell line NCl-H929. The experiment in a line: H929 Cell Viability Assay. The conditions noted are these: Homo sapiens, NCI-H929, 48 h, H929, Celltiter-Glo. It is filed as cell-based, human. The gist of the method:
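NCI-H929 myeloma cells in RPMI 1640 with 10% FBS were treated with compound dilutions for 48 h at 37 °C, and viability was then read by CellTiter-Glo luminescence. Compounds drawn without stereochemistry were tested as stereoisomer mixtures.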

Take `COCCN1CCCN(S(=O)(=O)c2ccc(N(C)C)cc2)C[C@H](C)CN(S(=O)(=O)N2CCc3cc(Cl)ccc3C2)CCC1` [A140, 4-{[(3S)-5-[(6-chloro-1,2,3,4-tetrahydroisoquinolin-2-yl)sulfonyl]-9-(2-methoxyethyl)-3-methyl-1,5,9-triazacyclododecan-1-yl]sulfonyl}-N,N-dimethylaniline]: the results for the IC50 in data set [1], in [3] and in [7] were 0.492 µM, 0.808 µM and 3.01 µM, respectively. Also, the “Liver Microsome Stability-% Left after 30 min w/ NADPH (%) Human” value (from here on “Liver Microsome Stability-% Left … (%) Human”) in data set [2] came out at 0.41%. Further, in [4], the “Liver Microsome Stability-% Left after 30 min w/ NADPH (%) Monkey” value (from here on “Liver Microsome Stability-% Left … (%) Monkey”) was determined as 1.56%. The EC50 in [5] and in data set [9] was more than 25 µM throughout. In addition, in data set [6], the “Liver Microsome Stability-% Left after 30 min w/ NADPH (%) Rat” value (shortened to “Liver Microsome Stability-% Left … (%) Rat”) was 0.56%. The “Liver Microsome Stability-% Left after 30 min w/ NADPH (%) Mouse” value (“Liver Microsome Stability-% Left … (%) Mouse” for short) in data set [8] is listed as 3.68%.

On to `C[C@H]1CN(S(=O)(=O)c2ccc(N(C)C)cc2)CCCN(CC2CCCCC2)CCCN(S(=O)(=O)N2CCc3c(Cl)cccc3C2)C1` [A181, 4-{[(3S)-5-[(5-chloro-1,2,3,4-tetrahydroisoquinolin-2-yl)sulfonyl]-9-(cyclohexylmethyl)-3-methyl-1,5,9-triazacyclododecan-1-yl]sulfonyl}-N,N-dimethylaniline], for which the results for the IC50 in data set [1], in data set [3] and in [7] were 0.0387 µM, 0.122 µM and 0.984 µM, respectively. For the same molecule, the “Liver Microsome Stability-% Left … (%) Human” value in data set [2] is 23.3%. In addition, the “Liver Microsome Stability-% Left … (%) Monkey” value in data set [4] worked out at 27.9%. Besides, the EC50 is more than 25 µM in [5] and 1.48 µM in data set [9]. For the same molecule, the “Liver Microsome Stability-% Left … (%) Rat” value in data set [6] came out at 22.0%. The “Liver Microsome Stability-% Left … (%) Mouse” value in [8] stood at 17.1%.

For the molecule `C[C@H]1CN(S(=O)(=O)c2ccc(N(C)C)cc2)CCCN(CC2CCCCC2)CCCN(S(=O)(=O)N2CCN(C(=O)c3ccccc3)CC2)C1` [A100, 4-{[(3S)-5-[(4-benzoylpiperazin-1-yl)sulfonyl]-9-(cyclohexylmethyl)-3-methyl-1,5,9-triazacyclododecan-1-yl]sulfonyl}-N,N-dimethylaniline], the IC50 is 1.15 µM in data set [1], 1.56 µM in [3] and more than 25 µM in data set [7]. Also, the “Liver Microsome Stability-% Left … (%) Human” value in [2] is 0.22%. Further, the “Liver Microsome Stability-% Left … (%) Monkey” value in [4] is reported as 0.04%. The EC50 in data set [5] and in data set [9] was more than 25 µM in each case. Moreover, the “Liver Microsome Stability-% Left … (%) Rat” value in data set [6] is reported as 2.18%. The “Liver Microsome Stability-% Left … (%) Mouse” value in data set [8] is 0.1%.

On to `C[C@H]1CN(S(=O)(=O)c2ccc(N(C)C)cc2)CCCN(CC2CCCCC2)CCCN(S(=O)(=O)N2CCN(c3ccccc3OC(F)(F)F)CC2)C1` [A173, 4-{[(3S)-9-(cyclohexylmethyl)-3-methyl-5-({4-[2-(trifluoromethoxy)phenyl]piperazin-1-yl}sulfonyl)-1,5,9-triazacyclododecan-1-yl]sulfonyl}-N,N-dimethylaniline], for which the IC50 stood at 0.0788 µM in data set [1], 0.248 µM in data set [3] and 5.64 µM in [7]. Besides, in data set [2], the “Liver Microsome Stability-% Left … (%) Human” value turned out to be 56.1%. Besides, in data set [4], the “Liver Microsome Stability-% Left … (%) Monkey” value stood at 55.9%. Also, the EC50 in [5] and in [9] was more than 25 µM each time. The “Liver Microsome Stability-% Left … (%) Rat” value in data set [6] amounted to 53.8%. In addition, the “Liver Microsome Stability-% Left … (%) Mouse” value in data set [8] came out at 49.2%.

With `CC1c2ccccc2CCN1S(=O)(=O)N1CCCN(CC2CCCCC2)CCCN(S(=O)(=O)c2ccc(N(C)C)cc2)C[C@H](C)C1` (stereo partly drawn) [A170, 4-{[(3S)-9-(cyclohexylmethyl)-3-methyl-5-[(1-methyl-1,2,3,4-tetrahydroisoquinolin-2-yl]sulfonyl]-1,5,9-triazacyclododecan-1-yl]sulfonyl}-N,N-dimethylaniline], the IC50 in [1] was determined as 0.0561 µM; in data set [3] it was 0.134 µM; in data set [7] it was 0.798 µM. The “Liver Microsome Stability-% Left … (%) Human” value in data set [2] is recorded as 7.2%. Further, in [4], the “Liver Microsome Stability-% Left … (%) Monkey” value came out at 1.37%. Besides, the values for the EC50 in data set [5] and in data set [9] were more than 25 µM and 1.78 µM, respectively. Besides, in [6], the “Liver Microsome Stability-% Left … (%) Rat” value is 10.8%. Besides, the “Liver Microsome Stability-% Left … (%) Mouse” value in data set [8] was 3.65%.

As to `C[C@H]1CN(S(=O)(=O)c2ccc(N(C)C)cc2)CCCN(C(=O)OCc2ccccc2)CCCN(S(=O)(=O)N2CCc3cc(Cl)ccc3C2)C1` [A103], the IC50 in data set [1] was 0.446 µM; in data set [3], 0.698 µM; in [7], more than 25 µM. Also, in [2], the “Liver Microsome Stability-% Left … (%) Human” value is listed as 31.6%. For the same molecule, in data set [4], the “Liver Microsome Stability-% Left … (%) Monkey” value came to 38.5%. For the same molecule, the EC50 in data set [5] and in data set [9] was more than 25 µM in each case. Also, the “Liver Microsome Stability-% Left … (%) Rat” value in [6] was determined as 36.5%. The “Liver Microsome Stability-% Left … (%) Mouse” value in data set [8] is 42.2%.

Regarding `C[C@H]1CN(S(=O)(=O)c2ccc(N(C)C)cc2)CCCN(CC2=CCCC2)CCCN(S(=O)(=O)N2CCc3cc(Cl)ccc3C2)C1` [A142], the results for the IC50 in data set [1], in [3] and in data set [7] were 0.0382 µM, 0.067 µM and 0.741 µM, respectively. For the same molecule, in data set [2], the “Liver Microsome Stability-% Left … (%) Human” value is 11.8%. Also, in data set [4], the “Liver Microsome Stability-% Left … (%) Monkey” value was 3.89%. Moreover, the EC50 was more than 25 µM in [5] and 1.45 µM in [9]. Also, the “Liver Microsome Stability-% Left … (%) Rat” value in data set [6] is 22.6%. Further, in data set [8], the “Liver Microsome Stability-% Left … (%) Mouse” value is listed as 16%.

As for `C[C@H]1CN(S(=O)(=O)c2ccc(N(C)C)cc2)CCCN(CC2CCCCC2)CCCN(S(=O)(=O)N2CCN(c3ccccc3C#N)CC2)C1` [A118, 2-(4-{[(3S)-9-(cyclohexylmethyl)-5-[4-(dimethylamino)benzenesulfonyl]-3-methyl-1,5,9-triazacyclododecan-1-yl]sulfonyl}piperazin-1-yl)benzonitrile], the IC50 in [1] is 0.0678 µM; in data set [3], 0.173 µM; in data set [7], 2.09 µM. For the same molecule, in data set [2], the “Liver Microsome Stability-% Left … (%) Human” value was determined as 14.2%. Further, the “Liver Microsome Stability-% Left … (%) Monkey” value in data set [4] came out at 14.7%. Also, the EC50 in [5] was more than 25 µM; in [9], 5.35 µM. In addition, in data set [6], the “Liver Microsome Stability-% Left … (%) Rat” value is on record as 18.3%. Moreover, in data set [8], the “Liver Microsome Stability-% Left … (%) Mouse” value is on record as 22.1%.

`CC(C)CCN1CCCN(S(=O)(=O)c2ccc(N(C)C)cc2)C[C@H](C)CN(S(=O)(=O)N2CCc3cc(Cl)ccc3C2)CCC1` [A123, 4-{[(3S)-5-[(6-chloro-1,2,3,4-tetrahydroisoquinolin-2-yl)sulfonyl]-3-methyl-9-(3-methylbutyl)-1,5,9-triazacyclododecan-1-yl]sulfonyl}-N,N-dimethylaniline]: the IC50 was 0.014 µM in data set [1], 0.0459 µM in [3] and 0.425 µM in data set [7]. For the same molecule, the “Liver Microsome Stability-% Left … (%) Human” value in data set [2] was found to be 5.02%. The “Liver Microsome Stability-% Left … (%) Monkey” value in [4] was 3.47%. Moreover, the EC50 in [5] is more than 25 µM; in data set [9], 0.835 µM. For the same molecule, the “Liver Microsome Stability-% Left … (%) Rat” value in [6] was determined as 7.41%. Further, in [8], the “Liver Microsome Stability-% Left … (%) Mouse” value was found to be 6.13%.

As for `C[C@H]1CN(S(=O)(=O)c2ccc(N(C)C)cc2)CCCN(CC2=CCCCC2)CCCN(S(=O)(=O)N2CCc3cc(Cl)ccc3C2)C1` [A135, 4-{[(3S)-5-[(6-chloro-1,2,3,4-tetrahydroisoquinolin-2-yl)sulfonyl]-9-[(cyclohex-1-en-1-yl)methyl]-3-methyl-1,5,9-triazacyclododecan-1-yl]sulfonyl}-N,N-dimethylaniline], the IC50 was 0.0216 µM in data set [1], 0.0486 µM in data set [3] and 0.625 µM in data set [7]. Besides, in data set [2], the “Liver Microsome Stability-% Left … (%) Human” value is given as 9.36%. Moreover, in data set [4], the “Liver Microsome Stability-% Left … (%) Monkey” value is 39.2%. The EC50 was more than 25 µM in [5] and 1.24 µM in [9]. Also, the “Liver Microsome Stability-% Left … (%) Rat” value in data set [6] is given as 56.3%. Further, in data set [8], the “Liver Microsome Stability-% Left … (%) Mouse” value worked out at 26.1%.

As a reminder, the EC50 is the concentration needed to bring the measured effect to its halfway point.
